Results reported in patent US7687609B2, “Galectin-glycosaminoglycan complex and method for controlling galectin activity” (National Institute of Advanced Industrial Science and …, priority 2006, dated 2010).

Columns and labels:
Format in all cases: binding
[1] = test system: tested galectin molecules (galectin-1, 3, 8N, 8C, 9N and 9C); assay: FAC affinity test, statements on the whole panel of tested galectins; details: Table 3, whole galectin panel
From the text: Using FAC, the present inventors have conducted a comprehensive analysis of the interactions between various galectin molecules (galectin-1, 3, 8N, 8C, 9N and 9C; N and C respectively represent N-terminal side carbohydrate-recognition domain and C-terminal side carbohydrate-recognition domain)-immobilized columns and various fluorescence-labeled glycosaminoglycan molecules. As a result, novel affinity was found by the combination of specific galectin molecules and glycosaminoglycan molecules to thereby accomplish the present invention.
(§1) A high performance liquid chromatography (HPLC) system was equipped with a galectin molecule-immobilized column, and the test was carried out by the method described in Nakamura S, Yagi F, Totani K, Ito γ and Hirabayashi J in FEBS J., 272, 2784-2799 (2005).
(§2) As the negative control sample, pyridyl-aminated N-acetylglucosamine (PA-GlcNAc, manufactured by Takara Bio, pyridyl-aminated glycosaminoglycan-oligosaccharide sample control) or pyridyl-aminated pullulan (prepared by carrying out pyridylamination of standard pullulan manufactured by Shodex, pyridyl-aminated glycosaminoglycan polysaccharide sample control) was used, and a V−V0 value was calculated from their eluate volume (V0 value) measured by fluorescence detection and the eluate volume (V value) of the sample, namely pyridyl-aminated glycosaminoglycan carbohydrate, and this was used as the index of interaction strength (Protein, Nucleic Acid and Enzyme, 48(8), 1206-1212 (2003)).
(§3) In this connection, when the calculated value of the V−V0 value was less than 5 μl, it was regarded as less than the interaction detection limit in this example.

[2] = molecular target: T1, Galectin-3 (Homo sapiens, UniProt P17931); assay: FAC affinity test on galectin-immobilized column; details: for V − V0 Value: pyridyl-aminated carbohydrate, galectin-3 immobilized 0.5 mg/ml, less than 5 μl = below interaction detection limit; for binding to galectin-3 (in words): text statement on the FAC results
T1 construct: made in house
T1 sequence (P17931 whole entry): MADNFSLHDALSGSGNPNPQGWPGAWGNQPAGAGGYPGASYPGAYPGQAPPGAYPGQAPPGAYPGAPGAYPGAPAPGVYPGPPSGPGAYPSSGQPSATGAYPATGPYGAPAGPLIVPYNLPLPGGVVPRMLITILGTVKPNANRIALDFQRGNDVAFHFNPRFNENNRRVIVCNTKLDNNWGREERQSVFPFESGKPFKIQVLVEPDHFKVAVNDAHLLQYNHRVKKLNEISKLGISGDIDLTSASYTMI
Protocol: (§4) Various galectin molecules-immobilized columns were prepared by the method described by Nakamura S, Yagi F, Totani K, Ito γ and Hirabayashi J in FEBS J., 272, 2784-2799 (2005), using NHS Sepharose (manufactured by Amersham Bioscience) as the carrier for immobilizing galectin molecules and in accordance with the instructions attached thereto (put in parentheses is immobilization concentration, mg galectin/ml carrier).
(§5) Each galectin molecule was immobilized onto the carrier at the following concentration; galectin-1 (0.8 mg/ml), galectin-3 (0.5 mg/ml), galectin-8N (3.6 mg/ml), galectin-8C (4.0 mg/ml), galectin-9N (3.6 mg/ml), galectin-9C (3.0 mg/ml). The carrier on which each galectin was immobilized was charged into a stainless steel miniature column (2 mm in inner diameter, 10 mm in length; manufactured by Shimadzu Corp.).
as §1, §2
(§6) V−V0 values of pyridyl-aminated glycosaminoglycans (HA, CH, DN, NAH, CSA, CSB, CSC, CSD, CSE, KS-I and KS-II) were calculated based on PA-GlcNAc, and V−V0 values of pyridyl-aminated glycosaminoglycan-oligosaccharides (G2K1, G1L1, G4L4, L2L2, L2L4, L4L4, SL2L4 and CH3 to CH12) based on pyridyl-aminated pullulan, respectively.
as §3

[3] = molecular target: T2, Galectin-9C (Homo sapiens, UniProt O00182); assay: FAC affinity test on galectin-immobilized column; details: for V − V0 Value: pyridyl-aminated carbohydrate, galectin-9C immobilized 3.0 mg/ml, less than 5 μl = below interaction detection limit; for binding to galectin-9C (in words): text statement on the FAC results
T2 construct: N and C respectively represent N-terminal side carbohydrate-recognition domain and C-terminal side carbohydrate-recognition domain; made in house
T2 sequence (O00182 227-355 limits assumed): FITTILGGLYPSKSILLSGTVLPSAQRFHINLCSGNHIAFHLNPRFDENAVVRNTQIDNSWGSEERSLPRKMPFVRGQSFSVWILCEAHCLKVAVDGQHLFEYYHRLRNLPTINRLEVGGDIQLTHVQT
Protocol: as §4, §5, §1, §2, §6, §3

[4] = molecular target: T3, Galectin-8C (Homo sapiens, UniProt O00214); assay: FAC affinity test on galectin-immobilized column; details: pyridyl-aminated carbohydrate; galectin-8C immobilized 4.0 mg/ml; less than 5 μl = below interaction detection limit
T3 construct: N and C respectively represent N-terminal side carbohydrate-recognition domain and C-terminal side carbohydrate-recognition domain; made in house
T3 sequence (O00214 187-317 limits assumed): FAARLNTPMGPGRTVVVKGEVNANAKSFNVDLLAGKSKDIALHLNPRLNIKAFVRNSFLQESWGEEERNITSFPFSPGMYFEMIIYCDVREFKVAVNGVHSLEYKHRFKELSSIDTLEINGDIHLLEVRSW
Protocol: as §4, §5, §1, §2, §6, §3

[5] = molecular target: T4, Galectin-9N (Homo sapiens, UniProt O00182); assay: FAC affinity test on galectin-immobilized column; details: for V − V0 Value: pyridyl-aminated carbohydrate, galectin-9N immobilized 3.6 mg/ml, less than 5 μl = below interaction detection limit; for binding to galectin-9N (in words): text statement on the FAC results
T4 construct: N and C respectively represent N-terminal side carbohydrate-recognition domain and C-terminal side carbohydrate-recognition domain; made in house
T4 sequence (O00182 17-148 limits assumed): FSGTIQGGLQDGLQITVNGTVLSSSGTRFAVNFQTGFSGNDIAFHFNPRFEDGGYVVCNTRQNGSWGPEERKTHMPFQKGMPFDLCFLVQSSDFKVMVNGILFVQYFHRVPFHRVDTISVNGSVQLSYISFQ
Protocol: as §4, §5, §1, §2, §6, §3

[6] = molecular target: T5, Galectin-1 (Homo sapiens, UniProt P09382); assay: FAC affinity test on galectin-immobilized column; details: for V − V0 Value: pyridyl-aminated carbohydrate, galectin-1 immobilized 0.8 mg/ml, less than 5 μl = below interaction detection limit; for binding to galectin-1 (in words): text statement on the FAC results
T5 construct: made in house
T5 sequence (P09382 whole entry): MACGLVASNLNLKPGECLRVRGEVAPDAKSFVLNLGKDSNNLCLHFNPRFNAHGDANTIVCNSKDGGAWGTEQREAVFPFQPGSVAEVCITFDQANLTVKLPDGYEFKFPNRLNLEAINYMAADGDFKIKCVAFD
Protocol: as §4, §5, §1, §2, §6, §3

[7] = molecular target: T6, Galectin-8N (Homo sapiens, UniProt O00214); assay: FAC affinity test on galectin-immobilized column; details: for V − V0 Value: pyridyl-aminated carbohydrate, galectin-8N immobilized 3.6 mg/ml, less than 5 μl = below interaction detection limit
T6 construct: N and C respectively represent N-terminal side carbohydrate-recognition domain and C-terminal side carbohydrate-recognition domain; made in house
T6 sequence (O00214 19-152 limits assumed): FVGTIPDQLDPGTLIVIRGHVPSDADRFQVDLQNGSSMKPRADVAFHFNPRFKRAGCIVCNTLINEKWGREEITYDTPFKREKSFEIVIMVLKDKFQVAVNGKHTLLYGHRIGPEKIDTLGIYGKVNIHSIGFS
Protocol: as §4, §5, §1, §2, §6, §3

Compound | binding to the tested galectin molecules (in words) [1] | V − V0 Value [2] | binding to galectin-3 (in words) [2] | V − V0 Value [3] | binding to galectin-9C (in words) [3] | V − V0 Value [4] | V − V0 Value [5] | binding to galectin-9N (in words) [5] | V − V0 Value [6] | binding to galectin-1 (in words) [6] | V − V0 Value [7] | binding to galectin-8N (in words) ([7]; text statement on the FAC results)
CC(=O)N[C@H]1[C@H](O[C@H]2[C@@H](O)[C@@H](COS(=O)(=O)O)O[C@@H](O[C@H]3[C@H](O)[C@@H](NC(C)=O)C(O)O[C@@H]3COS(=O)(=O)O)[C@@H]2O)O[C@H](COS(=O)(=O)O)[C@@H](O[C@@H]2O[C@H](CO)[C@H](O)[C@H](O)[C@H]2O)[C@@H]1O (stereo partly drawn) [L2L4, Gal β1-4 GlcNAc6S β1-3 Gal6S β1-4 GlcNAc6S] | bound to various galectin molecules | 15.8 ± 1.8 µL | showed binding affinity | 5.3 ± 0.7 µL | showed binding affinity | <5.0 µL | 6.6 ± 1.4 µL | showed binding affinity | 5.8 ± 0.2 µL | showed binding affinity | <5.0 µL | 
chondroitin sulfate E [CSE, reference compound] | did not bind | <5.0 µL |  | <5.0 µL |  | <5.0 µL | <5.0 µL |  | <5.0 µL |  | <5.0 µL | 
Hyaluronan [HA, reference compound] | did not bind | <5.0 µL |  | <5.0 µL |  | <5.0 µL | <5.0 µL |  | <5.0 µL |  | <5.0 µL | 
Gal β1-4 GlcNAc6S β1-3 Gal β1-4 GlcNAc6S [L2L2] | bound to various galectin molecules | 22.6 ± 1.1 µL | showed binding affinity | 7.7 ± 0.4 µL | showed binding affinity | <5.0 µL | 8.8 ± 0.3 µL | showed binding affinity | 6.2 ± 1.7 µL | showed binding affinity | <5.0 µL | 
CC(=O)NC1C(O)OC(COS(=O)(=O)O)C(OC2OC(COS(=O)(=O)O)C(O)C(OC3OC(COS(=O)(=O)O)C(OC4OC(CO)C(O)C(OC5(C(=O)O)CC(O)C(NC(C)=O)C(C(O)C(O)CO)O5)C4O)C(O)C3NC(C)=O)C2O)C1O (stereo not drawn) [SL2L4, NeuAc α2-3 Gal β1-4 GlcNAc6S β1-3 Gal6S β1-4 GlcNAc6S] | bound to various galectin molecules | 8.2 ± 0.2 µL | showed binding affinity | <5.0 µL |  | <5.0 µL | <5.0 µL |  | <5.0 µL |  | 26.5 ± 0.9 µL | showed binding affinity
CC(=O)N[C@H]1[C@H](O[C@H]2[C@@H](O)[C@@H](CO)OC(O)[C@@H]2O)O[C@H](CO)[C@@H](O[C@@H]2O[C@H](CO)[C@H](O)[C@H](O)[C@H]2O)[C@@H]1O (stereo partly drawn) [G2K1, Gal β1-4 GlcNAc β1-3 Gal] | bound to various galectin molecules | 11.6 ± 0.1 µL | showed binding affinity | 6.7 ± 0.2 µL | showed binding affinity | <5.0 µL | 5.1 ± 1.3 µL | showed binding affinity | 21.8 ± 1.9 µL | showed binding affinity | <5.0 µL | 
chondroitin sulfate D [CSD, reference compound] | did not bind | <5.0 µL |  | <5.0 µL |  | <5.0 µL | <5.0 µL |  | <5.0 µL |  | <5.0 µL | 
chondroitin sulfate C [CSC, reference compound] | did not bind | <5.0 µL |  | <5.0 µL |  | <5.0 µL | <5.0 µL |  | <5.0 µL |  | <5.0 µL | 
N-acetylheparosan [NAH, reference compound] | did not bind | <5.0 µL |  | <5.0 µL |  | <5.0 µL | <5.0 µL |  | <5.0 µL |  | <5.0 µL | 
CC(=O)NC1C(O)OC(COS(=O)(=O)[O-])C(OC2OC(COS(=O)(=O)[O-])C(O)C(OC3OC(COS(=O)(=O)[O-])C(OC4OC(COS(=O)(=O)[O-])C(O)C(O)C4O)C(O)C3NC(C)=O)C2O)C1O.[Na+].[Na+].[Na+].[Na+] (stereo not drawn) [L4L4, Gal6S β1-4 GlcNAc6S β1-3 Gal6S β1-4 GlcNAc6S] | did not bind | <5.0 µL |  | <5.0 µL |  | <5.0 µL | <5.0 µL |  | <5.0 µL |  | <5.0 µL | 
chondroitin sulfate A [CSA, reference compound] | did not bind | <5.0 µL |  | <5.0 µL |  | <5.0 µL | <5.0 µL |  | <5.0 µL |  | <5.0 µL | 
dermatan sulfate [CSB, reference compound] | did not bind | <5.0 µL |  | <5.0 µL |  | <5.0 µL | <5.0 µL |  | <5.0 µL |  | <5.0 µL | 
CC(=O)N[C@H]1[C@H](O[C@H]2[C@@H](O)[C@@H](CO)O[C@@H](O[C@H]3[C@H](O)[C@@H](NC(C)=O)C(O)O[C@@H]3CO)[C@@H]2O)O[C@H](CO)[C@@H](O)[C@@H]1O (stereo partly drawn) [G1L1, GlcNAc β1-3 Gal β1-4 GlcNAc] | bound to various galectin molecules | 14.2 ± 1.3 µL | showed binding affinity | <5.0 µL |  | <5.0 µL | 13.6 ± 0.5 µL | showed binding affinity | <5.0 µL |  | <5.0 µL | 
